A short description of data set [1]: ABTS radical cation scavenging (antioxidant) assay. To be noted: 20 µl of 1 mg/ml test sample (L-ascorbic acid 20 µl, 2 mM). On the procedure:
The absorbance (Acontrol) of a green-blue solution (ABTS^+ radical solution) resulted from a mixture of ABTS and manganese dioxide (MnO2) and was recorded at λmax 734 nm, according to the reported procedure[64]^,[65]. The absorbance (Atest) was measured upon the addition of 20 µl of 1 mg/ml solution of the test sample in spectroscopic grade methanol/phosphate buffer (1:1 v/v) to the ABTS solution. The decrease in absorbance is expressed as % inhibition, which can be calculated from the following equation: % inhibition = Acontrol-Atest/Acontrol×100.
L-Ascorbic acid 20 µl (2 mM) solution was used as standard antioxidant (positive control). A blank sample was run using only methanol/phosphate buffer (1:1), while the negative control was run with ABTS and the methanol/phosphate buffer.
The assay is based on measuring the ability of the tested compounds to scavenge the long-life radical cation of ABTS[22]^,[43]^,[64]^,[65].

For another data set, the system named is PC-3 cells. As to the kind of experiment: MTT antitumour assay, PC-3. The class given is cell-based. To be noted: PC-3; MTT; human prostate cancer cell line; mean ± SD, n = 3. The method, then: (§1) The evaluation of the antitumour activity was performed using tetrazolium salt MTT (3-(4,5-dimethyl-2-thiazolyl)-2,5-diphenyl-2H-tetrazolium bromide) assay as reported[62]^,[63].
(§2) The designed compounds were evaluated for their in vitro antitumour effects via the standard 3-(4,5-dimethylthiazol-2-yl)-2,5-diphenyltetrazolium bromide (MTT) method against a panel of four human tumour cell lines; namely, hepatocellular carcinoma cell line (HepG2), breast cancer cell line (MCF-7), human cervical cancer cell line (HeLa), and prostate cancer cell line (PC-3)[62]^,[63]^,[72]. The antitumour activities of the designed compounds 4–12, along with that of the reference drugs 5-FU and afatinib are shown in Table 1.

For another data set, the system named is HeLa cells. As to the kind of experiment: MTT antitumour assay, HeLa. Type of data set: cell-based. To be noted: human cervical epithelioid carcinoma cell line, mean ± SD, n = 3. The method, then: as §1
The designed compounds were evaluated for their in vitro antitumour effects via the standard 3-(4,5-dimethylthiazol-2-yl)-2,5-diphenyltetrazolium bromide (MTT) method against a panel of four human tumour cell lines; namely, hepatocellular carcinoma cell line (HepG2), breast cancer cell line (MCF-7), human cervical cancer cell line (HeLa), and prostate cancer cell line (PC-3)[62]^,[63]^,[72].

The next data set relates to MCF-7 cells. Nature of the data set: MTT antitumour assay, MCF-7. Type of data set: cell-based. As to conditions: MCF7, human breast adenocarcinoma cell line, mean ± SD, n = 3. On the procedure:
as §1, §2
(In general: Tetrazolium dyes change colour on reduction, which living cells bring about.)

In another data set the test system is HepG2 cells. Nature of the data set: MTT antitumour assay, HepG2. Type of data set: cell-based. To be noted: human hepato-cellular carcinoma cell line, mean ± SD, n = 3. On the procedure: as §1, §2
Data set [2] deals with HepG2, MCF-7, HeLa, and PC-3 cancer cell lines. Nature of the data set: MTT antitumour assay, range over the four cell lines. To be noted: range over HepG2, MCF-7, HeLa, PC-3 (and over the compounds named), read-out: IC50 range against the tested cell lines. The class given is cell-based, human. The method, then: as §1, §2
The next data set has as its target EGFR kinase (Homo sapiens, UniProt P00533). As to the kind of experiment: ELISA-based EGFR kinase inhibition assay. As to conditions: for Conc. (Average), ELISA read-out: duplicate wells, standards in ng/ml, cont 134.9.

In general, melting point refers to the temperature of the solid-liquid transition. What is called IC50 is the concentration at which inhibition is half-maximal. As a reminder, the inhibition is the share of the control response that was lost under treatment.

Molecules are shown by their SMILES. Like-named read-outs stand apart in the source and are kept apart here. A value given as a limit tells only on which side of the number the result lay.

Chain of EGFR kinase (P00533 25-1210): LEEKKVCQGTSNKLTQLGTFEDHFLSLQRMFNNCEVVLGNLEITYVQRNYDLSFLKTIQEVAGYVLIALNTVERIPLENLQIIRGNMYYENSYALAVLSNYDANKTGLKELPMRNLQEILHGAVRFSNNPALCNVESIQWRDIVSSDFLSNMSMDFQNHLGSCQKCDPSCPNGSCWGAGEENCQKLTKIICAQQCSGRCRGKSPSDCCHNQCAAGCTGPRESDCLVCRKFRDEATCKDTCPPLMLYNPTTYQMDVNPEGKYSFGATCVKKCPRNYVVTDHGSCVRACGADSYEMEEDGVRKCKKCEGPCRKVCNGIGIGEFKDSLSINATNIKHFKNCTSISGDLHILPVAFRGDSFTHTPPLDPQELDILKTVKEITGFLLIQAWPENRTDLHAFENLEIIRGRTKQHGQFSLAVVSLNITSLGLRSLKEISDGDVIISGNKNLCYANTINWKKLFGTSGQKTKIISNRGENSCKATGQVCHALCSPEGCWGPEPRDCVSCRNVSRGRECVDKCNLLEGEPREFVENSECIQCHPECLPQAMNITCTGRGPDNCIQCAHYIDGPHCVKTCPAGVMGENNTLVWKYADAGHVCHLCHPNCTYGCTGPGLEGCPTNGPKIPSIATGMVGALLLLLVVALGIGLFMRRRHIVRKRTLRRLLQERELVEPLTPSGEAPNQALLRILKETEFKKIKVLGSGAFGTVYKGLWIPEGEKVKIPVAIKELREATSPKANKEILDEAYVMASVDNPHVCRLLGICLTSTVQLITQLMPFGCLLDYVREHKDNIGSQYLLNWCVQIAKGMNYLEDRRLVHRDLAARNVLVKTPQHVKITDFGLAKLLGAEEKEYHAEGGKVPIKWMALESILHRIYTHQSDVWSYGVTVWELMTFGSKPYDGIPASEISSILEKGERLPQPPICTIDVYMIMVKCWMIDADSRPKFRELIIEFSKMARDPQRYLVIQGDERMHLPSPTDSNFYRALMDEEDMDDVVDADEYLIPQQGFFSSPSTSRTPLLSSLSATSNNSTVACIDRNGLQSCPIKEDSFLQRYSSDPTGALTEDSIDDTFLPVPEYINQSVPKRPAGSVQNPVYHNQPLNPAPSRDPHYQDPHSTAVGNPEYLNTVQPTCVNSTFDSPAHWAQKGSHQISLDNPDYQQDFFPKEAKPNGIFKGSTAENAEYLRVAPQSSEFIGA

`Cc1ccc(C2=NNC(c3ccc(OC4CCCC4)cc3)C2)cc1` (centres unmarked) [8a, 5-(4-(Cyclopentyloxy)phenyl)-3-(4-methylphenyl)-4,5-dihydro-1H-pyrazole] gave a melting point of 145 to 146 °C. Besides, in data set [1], the “%Inhibition of the ABTS radical cation” value was found to be 53.0%. This compound came in with a concentration for half-maximal inhibition (IC50) with PC-3 cells of 12.7 ± 1.13 µM. The same compound registered an IC50 in the data set on HeLa cells of 16.2 ± 1.36 µM. Moreover, in the data set with MCF-7 cells, it took 29.3 ± 1.97 µM to reach half-maximal inhibition (IC50). The compound also gave an IC50 in the data set on HepG2 cells of 18.9 ± 1.35 µM.
Consider `Cc1ccc(C2=NOC(c3ccc(OC4CCCC4)cc3)C2)cc1` (centres unmarked) [compound 9, 5-(4-(cyclopentyloxy)phenyl)-3-(4-methylphenyl)-4,5-dihydroisoxazole], for which the melting point was in the range of 120 to 122 °C. In addition, the “%Inhibition of the ABTS radical cation” value in data set [1] is recorded as 60.0%. In the data set with PC-3 cells, the half-maximal inhibitory concentration (IC50) was found to be 50.1 ± 3.55 µM. In the data set on HeLa cells, this compound returned an IC50 of 46.2 ± 3.3 µM. For the same compound, in the data set with MCF-7 cells, the IC50 was 58.4 ± 4.5 µM. This compound also showed an IC50 with HepG2 cells of 62.3 ± 4.1 µM.
On to `O=C(O)c1cc(C=Cc2ccc(OC3CCCC3)cc2)nc2ccc(F)cc12` [12b, 2-(4-(Cyclopentyloxy)styryl)-6-fluoroquinoline-4-carboxylicacid], for which the melting point is over 300 °C. For the same compound, the “%Inhibition of the ABTS radical cation” value in data set [1] amounted to 50.0%. Further, the 50% inhibitory concentration (IC50) in the data set with PC-3 cells stood at 69.4 ± 4.32 µM. Moreover, inhibition with HeLa cells was half-maximal at 66.8 ± 4.07 µM (IC50). In addition, half-maximal inhibition in the data set with MCF-7 cells (IC50) was put at 48.1 ± 3.25 µM. Moreover, the midpoint of inhibition in the data set with HepG2 cells, the IC50, lay at 30.8 ± 2.07 µM.
`Cc1ccc(-c2cc(-c3ccc(OC4CCCC4)cc3)c(C#N)c(N)n2)cc1` [compound 11, 2-amino-4-(4-(cyclopentyloxy)phenyl)-6-(4-methylphenyl)nicotinonitrile] displayed a melting point of 272 to 273 °C. In the data set on PC-3 cells, the midpoint of inhibition, the IC50, lay at 87.7 ± 5.41 µM. The compound also gave a half-inhibitory concentration (IC50) in the data set on HeLa cells of 62.4 ± 3.8 µM. Inhibition with MCF-7 cells was half-maximal at 97.3 ± 5.51 µM (IC50). For the same compound, the IC50 in the data set on HepG2 cells is 92.9 ± 5.82 µM.
For `Cc1ccc(-c2cc(-c3ccc(OC4CCCC4)cc3)c(C#N)c(=O)[nH]2)cc1` [compound 10, 4-(4-(cyclopentyloxy)phenyl)-2-oxo-6-(4-methylphenyl)-1,2-dihydropyridine-3-carbonitrile], the melting point was 278 to 280 °C. The compound also had an IC50 with PC-3 cells of 41.9 ± 2.87 µM. In addition, the IC50 in the data set on HeLa cells came out at 51.2 ± 3.82 µM. For the same compound, 70.9 ± 4.98 µM corresponded to half-maximal inhibition in the data set on MCF-7 cells (IC50). The same compound registered a half-inhibitory concentration (IC50) in the data set with HepG2 cells of 80.9 ± 5.34 µM.
With `Cc1ccc(C2=NN(c3ccccc3)C(c3ccc(OC4CCCC4)cc3)C2)cc1` (centres unmarked) [8b, 5-(4-(Cyclopentyloxy)phenyl)-1-phenyl-3-(4-methylphenyl)-4,5-dihydro-1H-pyrazole], the “%Inhibition of the ABTS radical cation” value in data set [1] amounted to 88.5%. Moreover, the IC50 in data set [2] (Homo sapiens) is 5.5 to 18.1 µM; in data set [2] it was 5.5 to 7.8 µM; with PC-3 cells, 7.8 ± 0.56 µM; in the data set with HeLa cells, 5.5 ± 0.45 µM; with MCF-7 cells, 5.6 ± 0.36 µM; in the data set on HepG2 cells it was 7.2 ± 0.24 µM. Moreover, on EGFR kinase, the 50% inhibitory concentration (IC50) came to 2.16 µM. The “% Inhibition EGFR” value turned out to be 6.96% on EGFR kinase (0.15 μM); 26.25% on EGFR kinase (0.31 μM); 43.85% on EGFR kinase (0.625 μM); 47.28% on EGFR kinase (1.25 μM); 50.51% on EGFR kinase (2.5 μM); 60.72% at EGFR kinase (5.0 μM). Further, the “% Inhibition EGFR” value on EGFR kinase (10.0 μM) was 64.88%. In addition, the inhibition at 0.15 µM on EGFR kinase (read-out: % Inhibition EGFR, 0.15 μM) turned out to be 6.97%. On EGFR kinase (read-out: % Inhibition EGFR, 0.31 μM), the inhibition at 0.31 µM stood at 26.3%. The inhibition at 0.625 µM on EGFR kinase (read-out: % Inhibition EGFR, 0.625 μM) was 43.9%. Further, the inhibition at 1.25 µM at EGFR kinase (read-out: % Inhibition EGFR, 1.25 μM) turned out to be 47.3%. At EGFR kinase (read-out: % Inhibition EGFR, 2.5 μM), the inhibition at 2.5 µM was found to be 50.5%. The inhibition at 5 µM at EGFR kinase (read-out: % Inhibition EGFR, 5.0 μM) stood at 60.7%. The inhibition at 10 µM on EGFR kinase (read-out: % Inhibition EGFR, 10.0 μM) is 64.9%. Also, the “Conc. (Average), ELISA read-out” value on EGFR kinase (sample at 0.15uM) stood at 125.5; on EGFR kinase (sample at 0.31uM), 99.48; at EGFR kinase (sample at 0.62uM), 75.74; at EGFR kinase (sample at 1.25uM) it was 71.11; on EGFR kinase (sample at 2.5uM), 66.76; at EGFR kinase (sample at 5uM), 52.98. For the same compound, at EGFR kinase (sample at 10uM), the “Conc. (Average), ELISA read-out” value is reported as 47.37.
Compound `O=C(O)c1cc(C=Cc2ccc(OC3CCCC3)cc2)nc2ccc(Br)cc12` [12a, 6-Bromo-2-(4-(cyclopentyloxy)styryl)quinoline-4-carboxylicacid] returned a melting point of over 300 °C. In the data set on PC-3 cells, this compound returned an IC50 of over 100 µM. The compound further had an IC50 with HeLa cells of 89.4 ± 4.89 µM. The same compound displayed a concentration for half-maximal inhibition (IC50) with MCF-7 cells of 87.1 ± 5.24 µM. The IC50 with HepG2 cells turned out to be 85.4 ± 5.31 µM.

These data come from paper PMC6010098, “Synthesis, antitumour and antioxidant activities of novel α,β-unsaturated ketones and related heterocyclic analogues: EGFR inhibition and molecular modelling study” (Journal of Enzyme Inhibition and Medicinal Chemistry, 2018).
